For data set [1], the target named is T1, CYP3A4 (Homo sapiens, UniProt P08684). Kind of data set: biochemical.
In data set [2] the target is T1, CYP3A4. Briefly: CYP reaction phenotyping, recombinant supersomes.
Another data set has as its target T2, CYP2C8 (Homo sapiens, UniProt P10632).
T2 sequence (P10632 1-490): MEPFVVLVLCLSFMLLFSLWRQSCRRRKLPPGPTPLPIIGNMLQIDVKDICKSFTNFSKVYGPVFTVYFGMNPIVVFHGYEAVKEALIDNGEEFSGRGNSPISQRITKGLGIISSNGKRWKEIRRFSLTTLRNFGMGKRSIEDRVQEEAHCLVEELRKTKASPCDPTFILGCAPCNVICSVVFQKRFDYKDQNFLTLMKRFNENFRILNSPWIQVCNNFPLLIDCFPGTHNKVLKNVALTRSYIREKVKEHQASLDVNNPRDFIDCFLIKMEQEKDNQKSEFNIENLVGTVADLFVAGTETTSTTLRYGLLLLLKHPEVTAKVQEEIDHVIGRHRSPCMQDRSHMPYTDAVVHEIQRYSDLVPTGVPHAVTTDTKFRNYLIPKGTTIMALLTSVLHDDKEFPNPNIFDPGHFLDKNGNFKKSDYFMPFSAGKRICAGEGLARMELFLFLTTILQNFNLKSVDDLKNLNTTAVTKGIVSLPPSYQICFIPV
Kind of data set: CYP reaction phenotyping, recombinant supersomes.

Data set [3] can be described thus: Liver microsome stability. As to conditions: mouse, pooled liver microsomes.
A further data set can be described thus: Hepatocyte stability. As to conditions: human.
A further data set has as its target Cav1.2 (L-type) (Homo sapiens, UniProt Q13936). Briefly: Bioprofiling panel functional assay. In kind it is cell-based. To be noted: 6 pt dilutions starting at 10 μM; read-out: IC50, antagonist readout.
Data set [4] deals with NLuc-expressing C. parvum. Briefly: NLuc C. parvum IFNγ-KO mouse infection model, oocyst shedding. Type of data set: in vivo.
The nature of data set [5]: Mouse plasma, brain and GI exposure PK, Balb/c, 30 mg/kg PO. As to conditions: 6 h, after BKI-1708.
The target of a further data set is CYP2D6 (Homo sapiens, UniProt P10635). Briefly: in vitro. To be noted: recombinant CYP2D6 supersomes.
Data set [6] deals with micronuclei in interphase cells. Kind of data set: In vitro micronucleus (IVMN) test.
The nature of data set [7]: Dog PK (r10 PO 1, r11 IV 1, r12-r14 PO 3, 10, 30 mg/kg). Type of data set: in vivo. To be noted: after BKI-1708 PO 1 mg/kg.

T1 sequence (P08684 whole entry): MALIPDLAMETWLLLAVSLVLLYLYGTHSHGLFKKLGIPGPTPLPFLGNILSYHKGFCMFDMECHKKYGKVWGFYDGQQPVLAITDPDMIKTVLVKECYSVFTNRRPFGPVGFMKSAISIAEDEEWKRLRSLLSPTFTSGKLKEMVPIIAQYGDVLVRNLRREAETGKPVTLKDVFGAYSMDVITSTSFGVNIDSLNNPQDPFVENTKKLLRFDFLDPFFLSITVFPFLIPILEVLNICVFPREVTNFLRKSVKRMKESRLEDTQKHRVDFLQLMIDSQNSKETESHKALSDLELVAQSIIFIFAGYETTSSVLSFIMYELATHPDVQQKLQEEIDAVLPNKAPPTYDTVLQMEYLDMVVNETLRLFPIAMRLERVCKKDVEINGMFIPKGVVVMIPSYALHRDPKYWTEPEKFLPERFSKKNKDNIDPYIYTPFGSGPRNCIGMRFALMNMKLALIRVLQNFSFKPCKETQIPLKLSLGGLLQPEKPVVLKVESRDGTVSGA
CYP2D6, sequence (P10635 whole entry): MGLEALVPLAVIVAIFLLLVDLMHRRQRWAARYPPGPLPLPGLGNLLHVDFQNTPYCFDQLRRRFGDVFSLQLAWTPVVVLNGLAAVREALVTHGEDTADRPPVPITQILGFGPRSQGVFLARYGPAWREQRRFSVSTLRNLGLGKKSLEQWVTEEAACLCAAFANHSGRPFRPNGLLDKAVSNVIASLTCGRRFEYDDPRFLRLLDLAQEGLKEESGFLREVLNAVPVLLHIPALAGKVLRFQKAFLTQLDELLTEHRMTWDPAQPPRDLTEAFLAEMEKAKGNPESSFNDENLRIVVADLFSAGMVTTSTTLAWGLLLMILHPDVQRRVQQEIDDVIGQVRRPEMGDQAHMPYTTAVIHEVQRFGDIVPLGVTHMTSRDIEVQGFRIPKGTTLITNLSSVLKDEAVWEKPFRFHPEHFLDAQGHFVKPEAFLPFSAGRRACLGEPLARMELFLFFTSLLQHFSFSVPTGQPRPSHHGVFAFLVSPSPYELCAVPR
Cav1.2 (L-type), sequence (Q13936 whole entry): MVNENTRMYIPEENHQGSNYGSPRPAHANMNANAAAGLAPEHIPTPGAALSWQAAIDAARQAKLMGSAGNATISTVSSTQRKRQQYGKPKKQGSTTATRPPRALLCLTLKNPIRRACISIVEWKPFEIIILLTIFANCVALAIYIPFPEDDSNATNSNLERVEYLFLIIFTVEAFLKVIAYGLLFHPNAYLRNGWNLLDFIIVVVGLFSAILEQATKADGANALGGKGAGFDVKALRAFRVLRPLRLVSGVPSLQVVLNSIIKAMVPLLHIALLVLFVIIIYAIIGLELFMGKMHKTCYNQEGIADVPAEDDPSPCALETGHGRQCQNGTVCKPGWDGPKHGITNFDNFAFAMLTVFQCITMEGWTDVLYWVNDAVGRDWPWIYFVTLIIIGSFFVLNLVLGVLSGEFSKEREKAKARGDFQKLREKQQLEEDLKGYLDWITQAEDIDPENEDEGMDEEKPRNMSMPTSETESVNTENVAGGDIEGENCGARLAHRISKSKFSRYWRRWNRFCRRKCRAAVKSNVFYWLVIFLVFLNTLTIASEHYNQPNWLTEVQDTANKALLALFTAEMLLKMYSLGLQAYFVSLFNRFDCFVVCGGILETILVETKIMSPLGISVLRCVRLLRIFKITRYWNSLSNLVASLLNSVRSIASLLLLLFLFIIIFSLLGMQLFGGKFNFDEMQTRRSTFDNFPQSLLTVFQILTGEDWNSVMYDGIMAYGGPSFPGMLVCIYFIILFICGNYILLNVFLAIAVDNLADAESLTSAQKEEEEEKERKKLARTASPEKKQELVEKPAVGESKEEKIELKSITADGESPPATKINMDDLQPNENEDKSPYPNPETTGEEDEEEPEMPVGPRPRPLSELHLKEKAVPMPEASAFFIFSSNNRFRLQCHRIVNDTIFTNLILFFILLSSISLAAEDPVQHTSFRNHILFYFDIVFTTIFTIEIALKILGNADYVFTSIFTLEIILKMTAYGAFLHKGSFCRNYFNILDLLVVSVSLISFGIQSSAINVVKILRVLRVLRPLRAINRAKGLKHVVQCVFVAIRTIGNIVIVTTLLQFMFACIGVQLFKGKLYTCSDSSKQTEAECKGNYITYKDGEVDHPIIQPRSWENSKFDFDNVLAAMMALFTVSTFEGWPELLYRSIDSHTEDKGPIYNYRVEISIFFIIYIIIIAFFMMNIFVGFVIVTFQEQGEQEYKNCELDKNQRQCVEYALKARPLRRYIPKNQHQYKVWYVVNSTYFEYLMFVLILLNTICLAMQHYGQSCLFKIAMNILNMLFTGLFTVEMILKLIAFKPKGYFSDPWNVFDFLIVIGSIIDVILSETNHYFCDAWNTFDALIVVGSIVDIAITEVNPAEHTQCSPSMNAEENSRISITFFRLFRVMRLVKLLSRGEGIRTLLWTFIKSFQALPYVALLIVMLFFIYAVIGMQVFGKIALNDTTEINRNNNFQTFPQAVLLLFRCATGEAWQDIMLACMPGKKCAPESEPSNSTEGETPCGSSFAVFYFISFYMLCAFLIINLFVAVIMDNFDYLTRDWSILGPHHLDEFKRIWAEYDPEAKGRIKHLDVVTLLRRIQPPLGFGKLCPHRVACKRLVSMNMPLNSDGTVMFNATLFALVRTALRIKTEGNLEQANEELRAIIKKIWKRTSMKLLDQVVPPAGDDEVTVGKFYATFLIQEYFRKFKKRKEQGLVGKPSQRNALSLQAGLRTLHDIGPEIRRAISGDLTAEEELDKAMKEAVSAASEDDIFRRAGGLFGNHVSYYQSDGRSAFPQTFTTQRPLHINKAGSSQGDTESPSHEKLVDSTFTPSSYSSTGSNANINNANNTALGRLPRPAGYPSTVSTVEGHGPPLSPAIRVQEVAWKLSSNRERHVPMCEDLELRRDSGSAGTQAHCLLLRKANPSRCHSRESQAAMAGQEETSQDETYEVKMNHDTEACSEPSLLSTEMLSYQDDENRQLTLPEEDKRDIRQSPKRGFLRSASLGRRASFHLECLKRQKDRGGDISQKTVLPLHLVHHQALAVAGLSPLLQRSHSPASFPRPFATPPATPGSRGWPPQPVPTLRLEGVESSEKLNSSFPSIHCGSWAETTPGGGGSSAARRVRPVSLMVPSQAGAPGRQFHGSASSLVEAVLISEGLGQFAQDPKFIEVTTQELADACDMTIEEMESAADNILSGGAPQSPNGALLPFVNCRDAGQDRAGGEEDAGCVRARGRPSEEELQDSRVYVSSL
Cav1.2 (L-type), sequence (Q08289 whole entry partner): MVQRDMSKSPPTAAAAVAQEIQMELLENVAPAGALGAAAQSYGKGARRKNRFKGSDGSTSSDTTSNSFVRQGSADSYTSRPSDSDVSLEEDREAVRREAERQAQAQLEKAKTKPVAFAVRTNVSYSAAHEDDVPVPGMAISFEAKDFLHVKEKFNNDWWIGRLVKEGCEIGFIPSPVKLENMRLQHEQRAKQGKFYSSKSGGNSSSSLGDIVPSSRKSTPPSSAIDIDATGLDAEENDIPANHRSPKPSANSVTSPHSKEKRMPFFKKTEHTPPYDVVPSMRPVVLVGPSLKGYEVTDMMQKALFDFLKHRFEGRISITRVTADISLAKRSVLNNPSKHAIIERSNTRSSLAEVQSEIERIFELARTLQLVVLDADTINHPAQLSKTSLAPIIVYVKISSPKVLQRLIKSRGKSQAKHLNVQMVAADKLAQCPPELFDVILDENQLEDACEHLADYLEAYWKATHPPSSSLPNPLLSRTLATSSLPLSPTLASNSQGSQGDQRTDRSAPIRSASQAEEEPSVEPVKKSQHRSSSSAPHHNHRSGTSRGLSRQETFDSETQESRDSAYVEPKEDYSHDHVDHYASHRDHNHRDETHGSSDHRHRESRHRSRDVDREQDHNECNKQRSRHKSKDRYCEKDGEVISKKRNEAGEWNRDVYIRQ

Consider `CC1(C)Cn2nc(-c3ccc4cc(OC5CC5)ccc4c3)c(C(N)=O)c2NC1O` (stereo not drawn) [M2], for which the values for the IC50 at CYP3A4 [1] and on Cav1.2 (L-type) were greater than 40 µM and 8.1 µM, respectively. Further, the “% contribution” value on CYP3A4 [2] is 47.9%; on CYP2C8, 0.0%. For the same compound, the CLint was 0.141 µL/min/pmol at CYP3A4 [2] and less than 0.029 µL/min/pmol at CYP2C8. Also, the CLint scaled in [3] was 75 mL/min/kg; in “Hepatocyte stability” (primary hepatocytes), 10 mL/min/kg; at CYP2D6 it was less than 0.183 mL/min/kg. The figures for the half-life (in data set [3]; in “Hepatocyte stability” (primary hepatocytes); on CYP2D6) were 1.97 h, 6.27 h and greater than 4 h, respectively. Also, the microsomal CLint in data set [3] worked out at 23.6 µL/min/mg. Besides, the “LM:hepatocyte CLint_scaled ratio” value in the data set “Hepatocyte stability” (liver microsomes and primary hepatocytes) is reported as less than 2.5. In the data set “Hepatocyte stability” (primary hepatocytes), this compound had a hepatocyte CLint of 3.7 µL/min/1e6 cells. The “day p.i. oocyst shedding reached LoD” value in data set [4] (M2 8 mg/kg x 3 days PO) was 17 days. The “day p.i. oocyst shedding below LoD” value in data set [4] (M2 15 mg/kg x 3 days PO) and in [4] (M2 30 mg/kg x 3 days PO) was no more than 10 days each time. Moreover, in [5], the “M2 peak level in jejunum, ileum, cecum/colon” value is greater than 1 µM. In addition, the IVMN test result in data set [6] is given as “negative”. In addition, the “M2 AUC0-inf” value in data set [7] stood at 196 ± 12 µmol·min/L.

The record behind these values is publication PMC12310023 (PLOS Neglected Tropical Diseases, 2025).
